Assay results reported in paper PMC6536413, “Application of ultrasound‐guided cholecystocentesis to the evaluation of the metabolite profiling in bile of dogs and cynomolgus monkeys” (Pharmacology Research & Perspectives, 2019).
Marks after values point to notes of the source that are not given here.

What was measured:
[1] = Concentration of ATV and metabolites in monkey bile obtained by BDC and UCC (LC-MS/MS); assay type: in vivo, cynomolgus macaques; conditions: for Concentration in bile: BDC monkeys, 30 mg/kg ATV orally; for concentration at 24 h: male, cynomolgus, cynomolgus monkey, bile, po, 30 mg/kg
Experimental: (§1) Plasma and bile samples were collected. For bile collection monkeys were sedated with ketamine (8 mg/kg) and dexmedetomidine (0.05 mg/kg) intramuscularly. At the conclusion of the procedure, sedation was reversed with atipamezole (0.15 mg/kg) intramuscularly. All other procedures were the same as for the dog.
(§2) Plasma samples were collected from dogs and monkeys at 0.5, 1, 2, 4, 6, and 24 hours postdose. Bile samples were collected at 0‐2 hours, 2‐4 hours, 4‐6 hours, 6‐8 hours, and 8‐24 hours intervals. Both plasma and bile samples were stored at −20°C until analysis.
(§3) Standard curves and quality control (QC) samples defining the dynamic range of the bioanalytical method were prepared in commercially available control plasma and processed in the same fashion as the test samples. When dilutions were required, an aliquot of the sample was diluted into control plasma. […] The supernatant was then separated from the precipitated proteins after a 10‐minute centrifugation at 3500 rpm (2109× g) at 10°C and transferred to an autosampler 96‐well plate. An aliquot (10 µL) was injected onto the ultrahigh performance liquid chromatography (UHPLC) column for LC‐MS/MS‐based analysis. Samples from individual animals were not pooled prior to quantitative analysis.
(§4) The UHPLC system Nexera (Shimadzu, Japan) consisted of two pumps (LC30AD), a column heater (CTO‐30A), and an autosampler (SIL‐30AC) equipped with a cooling compartment that maintained samples at 15°C during analysis. The analytical column used was a BEH C18 2.1 mm × 50 mm, 1.7 µm (Waters Corporation, Milford, MA) at 50°C. The mobile phase, which consisted of 0.1% formic acid in water (A) and acetonitrile (B), was delivered at a flow rate of 0.6 mL/min. The initial conditions were 100% aqueous followed by 1‐minute gradient to 100% acetonitrile then hold for 0.4 minutes and back to initial conditions.
(§5) The UHPLC was interfaced to a Finnigan TSQ Quantum Ultra LC‐MS/MS tandem mass spectrometer (Thermo Electron Corporation) equipped with heated electrospray ionization (HESI‐II) interface operating in the positive ionization mode. Ultrahigh‐purity nitrogen was used as the sheath and auxiliary gases at flow rates of 55 L/h for sheath and 25 L/h for auxiliary. The desolvation temperature was 300°C and the source temperature was 350°C. The detection of each analyte was achieved through selected reaction monitoring. […]

[2] = Plasma pharmacokinetics of ATV and metabolites in BDC and UCC monkeys (LC-MS/MS); assay type: in vivo, cynomolgus macaques; conditions: for Cmax / Tmax / AUC: male, cynomolgus, cynomolgus monkey, plasma, po, 30 mg/kg, 30 mg/kg oral dose of ATV, ± standard deviation; for AUC: read-out: AUC0‐24h; for plasma concentration: both the UCC and BDC monkey plasma samples, 30 mg/kg ATV orally
Experimental: as §1, §2, §3, §4, §5
(§6) The peak concentration (Cmax) and time for Cmax (Tmax) were recorded directly from experimental observations. The area under the curve from time 0 to 24 hours (AUC0‐24h) was calculated using a combination of linear and log trapezoidal summations.

[3] = Plasma pharmacokinetics of ATV and metabolites in BDC and UCC dogs (LC-MS/MS); assay type: in vivo; conditions: male, beagle, dog, po, 40 mg/kg, 40 mg/kg oral dose of ATV, ± standard deviation; for AUC: read-out: AUC0‐24h
Experimental: (§7) Plasma samples were collected at 0.5, 1, 2, 4, 6, and 24 hours postdose via cephalic vein or indwelling cephalic catheter. At the 6‐ and 24‐hours postdose time points, dogs were sedated with propofol at 6 mg/kg through an indwelling cephalic catheter. The dogs were then positioned in a dorsal‐recumbency with head elevated. Heart rate, rhythm, and arterial oxygen saturation were monitored throughout the procedure. After shaving and aseptically preparing the abdominal skin immediately caudal to the xiphoid process, an ultrasound exam of the gallbladder and cranial abdomen was done using a Mylab30cv ultrasound system with 9‐3 MHz micro‐convex transducer (Esoate, Indianapolis, IN). A 21‐gauge, 1.5‐inch needle, attached to a 5‐mL syringe, was inserted percutaneously through the abdominal wall into the gallbladder lumen. Effort was made to completely empty the gallbladder by aspiration (typically, 2‐5 mL bile was obtained). The needle and syringe were withdrawn and the bile samples were immediately saved on dry ice for later analysis. Dogs were allowed to recover in their home cages. Both plasma and bile samples were stored at −20°C until analysis.
as §2, §3, §4, §5, §6

[4] = Concentration of ATV and metabolites in dog bile obtained by BDC and UCC (LC-MS/MS); assay type: in vivo, beagle dogs; conditions: for Concentration in bile: BDC dogs, 40 mg/kg ATV orally, ± standard deviation; for concentration at 6 h / concentration at 24 h: male, beagle, dog, bile, po, 40 mg/kg
Experimental: as §7, §2, §3, §4, §5

[5] = Metabolite profile of ATV in monkey bile (LC-MS, UV 254 nm); assay type: in vivo, cynomolgus macaques; conditions: UV chromatograms
[6] = Metabolite profile of ATV in dog bile (LC-MS, UV 254 nm); assay type: in vivo, beagle dogs; conditions: based on the UV chromatograms
Experimental: Dog bile samples obtained by cholecystocentesis were pooled across animals (n = 3). Samples were mixed with an equal volume of citrate buffer (100 mmol/L) to make the final buffer concentration of 50 mmol/L. The mixture was mixed by vortexing for 1 minute and then centrifuged at 12 000× g for 15 minutes. An aliquot (5‐10 μL) of the supernatant was injected onto the UHPLC column for LC‐MS/MS‐based analysis.
The metabolite profile was obtained using LTQ‐Orbitrap coupled with Accela UHPLC and PDA (ThermoScientific, San Jose, CA) and a CTC PAL autosampler equipped with a cooling stack that maintained samples at 4°C during analysis. A 20‐minute UHPLC method was developed. The column was Acquity UPLC HSS T3 (Waters, Milford, MA) 2.1 × 150 mm, 1.8 µm. The column was maintained at a temperature of 55°C. The mobile phase consisted of 0.1% formic acid in water (solvent A) and 0.1% formic acid in acetonitrile (solvent B) at a flowrate of 600 µL/min with the following linear gradient conditions: 5% A for 0.5 minutes, 20‐60% B over 14 minutes, 95% B over 3 minutes, and 5% B isocratic for 2 minutes. Instrument settings were as follows: m/z range: 100 to 1000, capillary temperature was set at 280°C, nitrogen sheath gas flow rate 80 (arbitrary units), auxiliary gas 20, spray voltage 4.0 kV, and tube lens offset 80 V. In addition, UV wavelength was monitored at 254 nm.

[7] = Concentration of ATV and metabolites in monkey bile obtained by BDC and UCC (LC-MS/MS); assay type: in vivo, cynomolgus macaques; conditions: UCC monkeys, 4‐5 h, 30 mg/kg ATV orally, ± standard deviation
[8] = 0‐2 h, n = 2 due to blocked/displaced cannulas
[9] = 6‐8 h, n = 2 due to blocked/displaced cannulas

| Concentration in bile [1, 8] | Concentration in bile ([1]; 2‐4 h, ± standard deviation) | Concentration in bile ([1]; 4‐6 h, ± standard deviation) | Concentration in bile [1, 9] | Concentration in bile ([1]; 8‐24 h, ± standard deviation) | concentration at 24 h [1] | Cmax ([2]; BDC monkeys (n = 4)) | Tmax ([2]; BDC monkeys (n = 4)) | Cmax ([2]; UCC monkeys (n = 3)) | Tmax ([2]; UCC monkeys (n = 3)) | AUC ([2]; BDC monkeys (n = 4)) | AUC ([2]; UCC monkeys (n = 3)) | Cmax ([3]; BDC dogs (n = 3)) | Tmax ([3]; BDC dogs (n = 3)) | AUC ([3]; BDC dogs (n = 3)) | Cmax ([3]; UCC dogs (n = 3)) | Tmax ([3]; UCC dogs (n = 3)) | AUC ([3]; UCC dogs (n = 3)) | Concentration in bile ([4]; 0‐2 h) | Concentration in bile [7] | SMILES | further results |
| --- | --- | --- | --- | --- | --- | --- | --- | --- | --- | --- | --- | --- | --- | --- | --- | --- | --- | --- | --- | --- | --- |
| 112 µmol/L | 317 ± 66 µmol/L | 412 ± 302 µmol/L | 306 µmol/L | 303 ± 151 µmol/L | 586 ± 127 µM | 0.055 ± 0.02 µM | 9 ± 10.1 h | 0.031 ± 0.018 µM | 2 ± 1.7 h | 0.664 ± 0.347 µM·h | 0.057 ± 0.008 µM·h | 0.352 ± 0.28 µM | 2 h | 0.667 ± 0.203 µM·h | 0.215 ± 0.095 µM | 1.7 ± 0.6 h | 0.736 ± 0.066 µM·h | 256 ± 284 µM | 334 ± 70 µM | CC(C)c1c(C(=O)Nc2ccccc2O)c(-c2ccccc2)c(-c2ccc(F)cc2)n1CC[C@@H](O)C[C@@H](O)CC(=O)O [2‐OH ATV, 2‐hydroxyatorvastatin] | Concentration in bile ([4]; 2‐4 h): 690 ± 296 µM; Concentration in bile ([4]; 4‐6 h): 337 ± 266 µM; Concentration in bile ([4]; 6‐8 h): 168 ± 134 µM; Concentration in bile ([4]; 8‐24 h): 27 ± 19 µM; concentration at 6 h [4]: 151 ± 53 µM; concentration at 24 h [4]: 63 ± 65 µM; abundance of metabolite in bile [5]: major oxidative metabolites; abundance of metabolite in bile [6]: major oxidative metabolites |
| 2 µmol/L | 6 ± 3 µmol/L | 4 ± 2 µmol/L | 3 µmol/L | 2 ^b μmol/L | 19 ± 3 µM |  |  |  |  |  |  |  |  |  |  |  |  |  | 9 ± 5 µM | CC(C)c1c(C(=O)Nc2ccc(O)cc2)c(-c2ccccc2)c(-c2ccc(F)cc2)n1CC[C@@H]1C[C@@H](O)CC(=O)O1 [4‐OH ATV‐L, 4‐hydroxyatorvastatin lactone] | plasma concentration [2]: below the limits of quantitation |
| 36 µmol/L | 93 ± 57 µmol/L | 67 ± 35 µmol/L | 52 µmol/L | 18 ± 19 µmol/L | 147 ± 44 µM | 0.024 ± 0.006 µM | 4 ± 1.6 h | 0.039 ± 0.029 µM | 1.3 ± 0.6 h | 0.116 ± 0.045 µM·h | 0.035 ± 0.007 µM·h |  |  |  |  |  |  |  | 73 ± 19 µM | CC(C)c1c(C(=O)Nc2ccccc2O)c(-c2ccccc2)c(-c2ccc(F)cc2)n1CC[C@@H]1C[C@@H](O)CC(=O)O1 [2‐OH ATV‐L, 2‐hydroxyatorvastatin lactone] |  |
| 56 µmol/L | 180 ± 68 µmol/L | 207 ± 116 µmol/L | 140 µmol/L | 181 ± 29 µmol/L | 594 ± 39 µM |  |  |  |  |  |  | 0.138 ± 0.12 µM | 2.7 ± 1.2 h | 0.293 ± 0.038 µM·h | 0.082 ± 0.03 µM | 3.3 ± 1.2 h | 0.381 ± 0.128 µM·h | 501 ± 522 µM | 271 ± 185 µM | CC(C)c1c(C(=O)Nc2ccc(O)cc2)c(-c2ccccc2)c(-c2ccc(F)cc2)n1CC[C@@H](O)C[C@@H](O)CC(=O)O [4‐OH ATV, 4‐hydroxyatorvastatin] | plasma concentration [2]: below the limits of quantitation; Concentration in bile ([4]; 2‐4 h): 1342 ± 583 µM; Concentration in bile ([4]; 4‐6 h): 862 ± 472 µM; Concentration in bile ([4]; 6‐8 h): 558 ± 356 µM; Concentration in bile ([4]; 8‐24 h): 184 ± 97 µM; concentration at 6 h [4]: 279 ± 60 µM; concentration at 24 h [4]: 262 ± 317 µM; abundance of metabolite in bile [5]: major oxidative metabolites; abundance of metabolite in bile [6]: major oxidative metabolites |
